The source made the active and inactive calls. The rule behind the calls is not given here.
Columns and labels:
A549 [1] = experiment: Cytotoxicity against human A549 cells assessed as reduction in cell viability after 72 hrs by MTT assay; assay type: functional, cell-based; conditions: A549, 72 h
BEAS-2B = experiment: Cytotoxicity against human BEAS2B cells assessed as reduction in cell viability after 72 hrs by MTT assay; assay type: cell-based
[2] = Selectivity index, ratio of IC50 for human BEAS2B cells to IC50 for human A549 cells; assay type: toxicity
HCT-116 [3] = experiment: Cytotoxicity against human HCT116 cells assessed as reduction in cell viability after 72 hrs by MTT assay; assay type: functional, cell-based; conditions: HCT-116, 72 h
HCT-116 [4] = experiment: Cytotoxicity against p53-/- human HCT116 cells assessed as reduction in cell viability after 72 hrs by MTT assay; assay type: functional, cell-based; conditions: HCT-116, 72 h
HT-29 = experiment: Cytotoxicity against human HT-29 cells assessed as reduction in cell viability after 72 hrs by MTT assay; assay type: functional, cell-based; conditions: HT-29, 72 h
LoVo = experiment: Cytotoxicity against human LoVo cells assessed as reduction in cell viability after 72 hrs by MTT assay; assay type: functional, cell-based
Hep 3B2 = experiment: Cytotoxicity against human Hep3B cells assessed as reduction in cell viability after 72 hrs by MTT assay; assay type: functional, cell-based
HepG2 = experiment: Cytotoxicity against human HepG2 cells assessed as reduction in cell viability after 72 hrs by MTT assay; assay type: functional, cell-based; conditions: HepG2, 72 h
U2OS = experiment: Cytotoxicity against human U2OS cells assessed as reduction in cell viability after 72 hrs by MTT assay; assay type: functional, cell-based
SJSA-1 = experiment: Cytotoxicity against human SJSA1 cells assessed as reduction in cell viability after 72 hrs by MTT assay; assay type: functional, cell-based; conditions: SJSA-1, 72 h
MCF7 = experiment: Cytotoxicity against human MCF7 cells assessed as reduction in cell viability after 72 hrs by MTT assay; assay type: functional, cell-based; conditions: MCF7, 72 h
PC-3 = experiment: Cytotoxicity against human PC3 cells assessed as reduction in cell viability after 72 hrs by MTT assay; assay type: functional, cell-based; conditions: PC-3, 72 h
DU-145 = experiment: Cytotoxicity against human DU145 cells assessed as reduction in cell viability after 72 hrs by MTT assay; assay type: functional, cell-based; conditions: DU-145, 72 h
A549 [5] = experiment: Cell cycle arrest in human A549 cells assessed as accumulation at G1-phase at 10 uM after 24 hrs by propidium iodide staining based flow cytometry (reference value: 59.4%); assay type: functional
A549 [6] = experiment: Cell cycle arrest in human A549 cells assessed as accumulation at S-phase at 10 uM after 24 hrs by propidium iodide staining based flow cytometry (reference value: 34.1%); assay type: functional
A549 [7] = experiment: Cell cycle arrest in human A549 cells assessed as accumulation at G2/M-phase at 10 uM after 24 hrs by propidium iodide staining based flow cytometry (reference value: 6.5%); assay type: functional
A549 [8] = experiment: Cell cycle arrest in human A549 cells assessed as accumulation at G1-phase at 10 uM after 72 hrs by propidium iodide staining based flow cytometry (reference value: 75.2 to 76%); assay type: functional
A549 [9] = experiment: Cell cycle arrest in human A549 cells assessed as accumulation at S-phase at 10 uM after 72 hrs by propidium iodide staining based flow cytometry (reference value: 16.8 to 18.5%); assay type: functional
A549 [10] = experiment: Cell cycle arrest in human A549 cells assessed as accumulation at G2/M-phase at 10 uM after 72 hrs by propidium iodide staining based flow cytometry (reference value: 6.3 to 7.2%); assay type: functional
A549 [11] = experiment: Downregulation of Cyclin-B1 protein expression in human A549 cells at 10 uM after 72 hrs by Western blot analysis; assay type: functional, cell-based
A549 [12] = experiment: Cell cycle arrest in human A549 cells assessed as accumulation at G1-phase at 20 uM after 72 hrs by propidium iodide staining based flow cytometry (reference value: 61.5%); assay type: functional
A549 [13] = experiment: Cell cycle arrest in human A549 cells assessed as accumulation at S-phase at 20 uM after 72 hrs by propidium iodide staining based flow cytometry (reference value: 31.9%); assay type: functional
A549 [14] = experiment: Cell cycle arrest in human A549 cells assessed as accumulation at G2/M-phase at 20 uM after 72 hrs by propidium iodide staining based flow cytometry (reference value: 6.7%); assay type: functional
A549 [15] = experiment: Induction of apoptosis in human A549 cells assessed as live cells at 20 uM after 72 hrs by Annexin V-FITC/propidium iodide staining based flow cytometry (reference value: 98.5%); assay type: functional
A549 [16] = experiment: Induction of apoptosis in human A549 cells assessed as early apoptotic cells at 20 uM after 72 hrs by Annexin V-FITC/propidium iodide staining based flow cytometry (reference value: 0.4%); assay type: functional
A549 [17] = experiment: Induction of apoptosis in human A549 cells assessed as late apoptotic cells at 20 uM after 72 hrs by Annexin V-FITC/propidium iodide staining based flow cytometry (reference value: 0.5%); assay type: functional
A549 [18] = experiment: Induction of apoptosis in human A549 cells assessed as necrotic cells at 20 uM after 72 hrs by Annexin V-FITC/propidium iodide staining based flow cytometry (reference value: 0.6%); assay type: functional
A549 [19] = experiment: Induction of apoptosis in human A549 cells at 20 uM after 72 hrs by Annexin V-FITC/propidium iodide staining based flow cytometry relative to control; assay type: functional
A549 [20] = experiment: Effect on Bad protein expression in human A549 cells at 20 uM after 72 hrs by densitometric analysis; assay type: functional, cell-based
A549 [21] = experiment: Effect on Bax protein expression in human A549 cells at 20 uM after 72 hrs by densitometric analysis; assay type: functional, cell-based
A549 [22] = experiment: Effect on Bcl2 protein expression in human A549 cells at 20 uM after 72 hrs by densitometric analysis; assay type: functional, cell-based
A549 [23] = experiment: Effect on Bcl-x protein expression in human A549 cells at 20 uM after 72 hrs by densitometric analysis; assay type: functional, cell-based
A549 [24] = experiment: Effect on Pro-caspase-3 protein expression in human A549 cells at 20 uM after 72 hrs by densitometric analysis; assay type: functional, cell-based
A549 [25] = experiment: Effect on cleaved caspase-3 protein expression in human A549 cells at 20 uM after 72 hrs by densitometric analysis; assay type: functional, cell-based
A549 [26] = experiment: Induction of apoptosis in human A549 cells assessed as caspase-3 cleavage at 20 uM after 72 hrs by Western blot analysis; assay type: functional, cell-based
A549 [27] = experiment: Induction of mitosis in human A549 cells at 10 uM after 24 hrs by DAPI staining based fluorescence microscopic method; assay type: functional, cell-based
A549 [28] = experiment: Anticlonogenic activity against human A549 cells assessed as colony formation at 5 uM after 72 hrs by crystal violet staining based microscopic method relative to control; assay type: functional
A549 [29] = experiment: Anticlonogenic activity against human A549 cells assessed as colony formation at 10 uM after 72 hrs by crystal violet staining based microscopic method relative to control; assay type: functional
A549 [30] = experiment: Synergistic cytotoxicity against human A549 cells assessed as reduction in cell viability at 10 uM after 72 hrs in presence of 5 to 20 uM erlotinib by MTT assay; assay type: functional, cell-based
A549 [31] = experiment: Synergistic anticlonogenic activity against human A549 cells at 10 uM after 72 hrs in presence of 10 uM erlotinib by crystal violet staining based microscopic method; assay type: functional
A549 [32] = experiment: Anticlonogenic activity against human A549 cells at 10 uM after 72 hrs by crystal violet staining based microscopic method relative to control; assay type: functional
A549 [33] = experiment: Synergistic cell cycle arrest in human A549 cells assessed as accumulation at G1-phase at 10 uM after 72 hrs in presence of 10 uM erlotinib by propidium iodide staining based flow cytometry (reference value: 76%); assay type: functional
A549 [34] = experiment: Synergistic cell cycle arrest in human A549 cells assessed as accumulation at S-phase at 10 uM after 72 hrs in presence of 10 uM erlotinib by propidium iodide staining based flow cytometry (reference value: 16.8%); assay type: functional
A549 [35] = experiment: Synergistic cell cycle arrest in human A549 cells assessed as accumulation at G2/M-phase at 10 uM after 72 hrs in presence of 10 uM erlotinib by propidium iodide staining based flow cytometry (reference value: 7.2%); assay type: functional

CC(C)OC1OC(=O)C(Cl)=C1Cl (stereo not given)
IC50 (A549 [1]): 6.7 µM | IC50 (BEAS-2B): 27.5 µM | log(RatioIC50) [2]: 0.61 | IC50 (HCT-116 [3]): 7.2 µM | IC50 (HCT-116 [4]): 6.8 µM | IC50 (HT-29): 7.2 µM | IC50 (LoVo): 2.8 µM | IC50 (Hep 3B2): 19.8 µM | IC50 (HepG2): 16.8 µM | IC50 (U2OS): 21.1 µM | IC50 (SJSA-1): 7.7 µM | IC50 (MCF7): 12.4 µM | IC50 (PC-3): 4.8 µM | IC50 (DU-145): 25.4 µM | Activity (A549 [5]): 40% | Activity (A549 [6]): 36.6% | Activity (A549 [7]): 23.4% | Activity (A549 [8]): 59.9 - 68.2% | Activity (A549 [9]): 19.3 - 26.2% | Activity (A549 [10]): 12.5 - 13.9% | Activity (A549 [11]): Active | Activity (A549 [12]): 48% | Activity (A549 [13]): 47.3% | Activity (A549 [14]): 4.7% | Activity (A549 [15]): 63.9% | Activity (A549 [16]): 6.5% | Activity (A549 [17]): 25.7% | Activity (A549 [18]): 3.9% | fold change (FC) (A549 [19]): 36 | Activity (A549 [20]): inactive | Activity (A549 [21]): inactive | Activity (A549 [22]): inactive | Activity (A549 [23]): inactive | Activity (A549 [24]): inactive | Activity (A549 [25]): inactive | Activity (A549 [26]): inactive | Activity (A549 [27]): inactive | Activity (A549 [28]): 40% | Activity (A549 [29]): 15% | Activity (A549 [30]): inactive | Activity (A549 [31]): 89% | Activity (A549 [32]): 86% | Activity (A549 [33]): 51.4% | Activity (A549 [34]): 31.9% | Activity (A549 [35]): 16.6%
